Assay [1] concerns A2780. The assay can be described thus: Cytotoxicity against human A2780 cells after 48 hrs by alamar blue assay. Type of assay: functional, cell-based. A general note: The colour change of resazurin is a common sign of viable cells or microbes.
The subject of assay [2] is Saccharomyces cerevisiae. The assay can be described thus: DNA damaging activity against yeast 1138 mutant assessed as drug level required to produce 12 mm zone of inhibition. The assay is classed as functional.

The source made the active and inactive calls. No cut-off for these calls is given here. Bounds are passed on as bounds.

On to `C=C[C@](C)(O)CC[C@]1(C)C2=CCC[C@](C)(C(=O)N[C@H](C(=O)OC)c3ccccc3)[C@H]2CC[C@H]1C`, for which the result in assay [1] and in assay [2] was inactive.
A word on the IC50: it is the midpoint of a concentration-inhibition curve. Low values mean higher potency, high ones lower potency. `C=C[C@](C)(O)CC[C@]1(C)C2=CCC[C@](C)(C(=O)O)[C@H]2CC[C@H]1C`: the IC50 in assay [1] (A2780, 48 h) is more than 40 µg/mL. In assay [2], the IC12 turned out to be 925 µg/mL.
On to `C=C[C@](C)(O)CC[C@]1(C)C2=CCC[C@](C)(C(=O)N[C@@H](C(=O)OC)c3ccccc3)[C@H]2CC[C@H]1C`, for which the result in assay [1] and in assay [2] was inactive.
As to `C=C[C@](C)(O)CC[C@]1(C)C2=CC(=O)C[C@](C)(C(=O)O)[C@H]2CC[C@H]1C`, the outcome in assay [1] and in assay [2] was inactive.

For the origin of these results see ChEMBL document CHEMBL1159301, “Isolation and absolute configuration of ent-Halimane diterpenoids from Hymenaea courbaril from the Suriname rain forest” (J Nat Prod, 2002).
